Key:
Pseudomonas aeruginosa = experiment: Minimum Inhibitory Concentration test in nutrient broth (bacterial); type: cell-based; parameters: key: + = Growth; - = No Growth
Procedure: (§1) A Minimum Inhibitory Concentration test with bacteria and fungus was performed in nutrient broth. The test compound was added to sterile broth at 0.1% (1000PPM) and diluted sequentially with sterile broth to yield required levels. One drop of an actively-growing 24-hour culture was added to each level and incubated for a period of 24 hours at a temperature of 30°C. At the end of the time period, an aliquot from each tube was placed on nutrient agar and observed for growth.

Alternaria solani = experiment: Minimum Inhibitory Concentration test in nutrient broth (fungal); type: cell-based; parameters: key: + = Growth; - = No Growth
Procedure: as §1

Annual morning glory = experiment: Postemergence herbicidal test; type: in vivo, Ipomoea purpurea; details: Application rate 4.0 lb/A, postemergence spray, rated visually nineteen days later
Source text: (§2) Aluminum planting flats measuring 15.2 x 22.9 x 8.9 cm were filled to a depth of 7.6 cm with loamy sand soil, containing 50 parts per million (ppm) each of the commercial fungicide cis-N(trichloromethyl)thio -4-cyclohexane-l,2-dicarboximide (Captan®) and 17-17-17 fertilizer (percentages of N-P2O5-K2O) on a weight basis). Several rows were impressed across the width of each flat and a variety of seeds of both grass and broadleaf weed species were planted, one species per row. The weed species used are listed below:
(§3) The broad leaf species were seeded first, and the grasses were seeded four days later. Ample seeds of each species were planted to produce 20 to 50 seedlings per row after emergence, depending on the size of each plant.
(§4) Ten days after the grasses were seeded, the emerged seedlings of all species were sprayed with aqueous solutions of the test compounds. The solutions were prepared to such dilutions that a spray rate of 80 gallons per acre (750 liters per hectare) gave from 0.5 to 4.0 pounds of test compound per acre (0.56 to 4.48 kilograms per hectare) as desired for each test. Additional flats not treated at all were used as standards for measuring the extent of weed control in the treated flats. […]

Velvetleaf = experiment: Postemergence herbicidal test; type: in vivo, Abutilon theophrasti; details: Application rate 4.0 lb/A, postemergence spray, rated visually nineteen days later
Source text: as §2, §3, §4

Mustard = experiment: Postemergence herbicidal test; type: in vivo, Brassica sp.; details: Application rate 4.0 lb/A, postemergence spray, rated visually nineteen days later
Source text: as §2, §3, §4

Foxtail = experiment: Postemergence herbicidal test; type: in vivo, Setaria sp.; details: Application rate 4.0 lb/A, postemergence spray, rated visually nineteen days later
Source text: as §2, §3, §4

Watergrass = experiment: Postemergence herbicidal test; type: in vivo, Echinochloa crusgalli; details: Application rate 4.0 lb/A, postemergence spray, rated visually nineteen days later
Source text: as §2, §3, §4

Wild oat = experiment: Postemergence herbicidal test; type: in vivo, Avena fatua; details: Application rate 4.0 lb/A, postemergence spray, rated visually nineteen days later
Source text: as §2, §3, §4

[1] = 62.5 PPM, buffered to pH 6.8, 24 hours at 30°C
[2] = 62.5 PPM, pH 4, 24 hours at 30°C
[3] = 125 PPM, buffered to pH 6.8, 24 hours at 30°C
[4] = 125 PPM, pH 4, 24 hours at 30°C
[5] = 250 PPM, buffered to pH 6.8, 24 hours at 30°C
[6] = 250 PPM, pH 4, 24 hours at 30°C
[7] = 500 PPM, buffered to pH 6.8, 24 hours at 30°C
[8] = 500 PPM, pH 4, 24 hours at 30°C
[9] = 1000 PPM, buffered to pH 6.8, 24 hours at 30°C
[10] = 1000 PPM, pH 4, 24 hours at 30°C

CS(=O)(=O)CC(Cl)C#N (centres unmarked) [Compound 1, 3-(methylsulfonyl)-2-chloropropanenitrile]
Growth (Pseudomonas aeruginosa; [1]): -
Growth (Pseudomonas aeruginosa; [2]): -
Growth (Pseudomonas aeruginosa; [3]): -
Growth (Pseudomonas aeruginosa; [4]): -
Growth (Pseudomonas aeruginosa; [5]): -
Growth (Pseudomonas aeruginosa; [6]): -
Growth (Pseudomonas aeruginosa; [7]): -
Growth (Pseudomonas aeruginosa; [8]): -
Growth (Pseudomonas aeruginosa; [9]): -
Growth (Pseudomonas aeruginosa; [10]): -
Growth (Alternaria solani; [1]): +
Growth (Alternaria solani; [2]): +
Growth (Alternaria solani; [3]): +
Growth (Alternaria solani; [4]): -
Growth (Alternaria solani; [5]): -
Growth (Alternaria solani; [6]): -
Growth (Alternaria solani; [7]): -
Growth (Alternaria solani; [8]): -
Growth (Alternaria solani; [9]): -
Growth (Alternaria solani; [10]): -
Percent Control A (Annual morning glory): 75%
Percent Control D (Velvetleaf): 75%
Percent Control E (Mustard): 40%
Percent Control J (Foxtail): 75%
Percent Control L (Watergrass): 65%
Percent Control N (Wild oat): 30%

— patent EP0111413A1, “Novel sulfone, process for its preparation, composition containing it and use thereof” (priority 1982, dated 1984)
